Columns and labels:
[1] = test system: K14Cre; Brca1^F/F; P53^F/F; experiment: Tumour latency and tumour incidence in the Brca1/P53 deficient mouse model; format: in vivo, mice
Description: The study model used was a genetically modified mouse, generated by the group led by Jos Jinkers from the Netherland Cancer Institute and generously donated to our group. It is a conditional double knock-out (KO) for Brca1 and P53 that expresses Cre-recombinase under the promoter of the cytokeratin-14 gene (K14) as a model named: K14Cre; Brca1^F/F; P53^F/F (hereinafter Brca1 or KO). These mice develop mammary tumours (cancers) with a penetrance of 100% (although it depends on whether they develop skin cancer first and must be sacrificed) and a median age of 7 months. They mimic human tumours with BRCA1 mutations, since they are basal-type and lose P53. Since Cre-recombinase under the promoter of the K14 gene is not only expressed in mammary cells, but also in other epithelial cells, these mice develop squamous cell carcinoma-like skin tumors. The cohort of mice used in this study has an FVB/N genetic background. […]

Brca1/P53-deficient mice = experiment: Indirect estimation of recombinant P53 cells by qPCR of the WT allele (longitudinal cohort); format: in vivo; settings: tumour-free mammary glands
Experimental: In order to obtain a suspension enriched in mouse mammary epithelial cells, from which we can obtain both RNA and proteins and also maintain acceptable viability, the protocol for obtaining mouse mammary organoids was carried out. Once the mammary glands were removed after performing the necropsy of the mouse, they were mechanically disintegrated by cutting with two scalpels. Subsequently, they were incubated in a volume of 10 mL of supplemented medium (DMEM/F12 (50%/50%), 5% fetal bovine serum, 1% penicillin/streptomycin) plus 1.25 mL of collagenase, and 1 mL of trypsin. This enzymatic digestion was carried out for 30 minutes at 37 °C in orbital agitation at 100 revolutions per minute (rpm) (= 1.666 s^-1). […]
DNA was extracted from frozen organoids obtained from mammary glands at 30 and 60 days of involution, and from tumour-free mammary glands of mice that developed breast cancer over time. The quantity and quality of DNA were quantified using a spectrophotometer (Nanodrop). Subsequently, this DNA was used to determine the recombination frequency of the P53 gene in the breasts of the different groups by Quantitative Polymerase Chain Reaction (qPCR). […]
For each sample, qPCR reactions against P53 and Tfrc were performed in parallel and in triplicate. […] The qPCR reactions and the reading of the signal were performed in the Mastercycler epgradient S Realplex2 thermal cycler from Eppendor. […]

SMILES: C=CCN1C[C@H](C(=O)N(CCCN(C)C)C(=O)NCC)C[C@@H]2c3cccc4[nH]cc(c34)C[C@H]21 [cabergoline, 1-[(6-allylergolin-8ß-yl)-carbonyl]-1-[3-(dimethylamino)propyl]-3-ethylurea]
- tumour latency ([1]; single intraperitoneal dose 0.25 mg/Kg at weaning after second lactation, vs pregnancy and lactation group P = 0.019, non-lactation pregnancy group P < 0.0001, nulliparous P < 0.0001): greater latency
- tumour incidence ([1]; single intraperitoneal dose 0.25 mg/Kg at weaning, 10 mice out of 37 developed tumour, vs lactating multiparous mice P = 0.0062): 27.78%
- WT allele (proportion of WT cells) over time (Brca1/P53-deficient mice): increase in WT cells was observed over time
